In patent US20190321420A1, “METHOD AND COMPOSITION FOR PREVENTING, TREATING OR RELIEVING BONE DISEASES” (GRAPE KING BIO Ltd., priority 2018, published 2019):
Marks after values point to notes of the source that are not given here.

How the values were obtained:
[1] = test system: ovariectomized ICR female mice; experiment: Micro-CT bone tissue analysis of the right distal femur in ovariectomized mice (osteoporosis model); format: in vivo; settings: 32nd day after ovariectomy, GKM3/GKS6 205 mg/kg oral gavage once/day for 28 days, Alen 2.5 mg/kg 3 times a week for 28 days, n = 6
[2] = test system: ovariectomized ICR female mice; experiment: Bone mineral density (BMD) of the femur in ovariectomized mice; format: in vivo; settings: right femur, 32nd day after ovariectomy; GKM3/GKS6 205 mg/kg oral gavage once/day for 28 days; Alen 2.5 mg/kg 3 times a week for 28 days; n = 6
Protocol: In this embodiment, GKM3 and GKS6 powders were each prepared in a 0.5% (w/v) carboxymethylcellulose (CMC) solution as a suspension with a concentration of 205 mg/mL The vehicle group used 0.5% (w/v) CMC solution.
Because bone metabolism is closely related to estrogen, mice with bilateral ovariectomy were used as a model for studying osteoporosis in postmenopausal animals. After the recovery period of 1 to 2 weeks after the bilateral ovariectomy, mice were randomly assigned to different treatment groups.
In this embodiment, 8-week-old ICR female mice were purchased from BioLASCO Taiwan Co., Ltd., and ovariectomy (OVX) was performed when they were 9 weeks old. […]
Computerized tomography images of the right distal femur of ICR mice were obtained by a micro-computed tomography (micro-CT) scanner (SkyScan 1076, Kontizh, Belgium) with a resolution of 18 μm and were analyzed by a software to obtain the trabecular bone volume density (i.e., bone volume/tissue volume, BV/TV), the trabecular thickness (Tb.Th), the trabecular number (Tb.N), and the trabecular spacing (Tb.Sp). The analyzed position was selected to include the area of 100 pieces under the growth plate but not the cortical bone. […]
The bone density (mass/volume) was detected by the micro-CT. […]
The obtained data in the experiments were analyzed with one-way analysis of variance (one-way ANOVA) and the Duncan's multiple range test. […]

Structure (SMILES): NCCCC(O)(P(=O)(O)O)P(=O)(O)O [Alen, alendronate]
- Femur Tb.N [1]: 3.3 ± 0.1 No./mm
- Femur Tb.Sp [1]: 232.9 ± 25.9 μm
- Femur Tb.Th [1]: 109.9 ± 3.9 μm
- Femur BMD [2]: 0.60 ± 0.02* g/cm^3
